Test results published in patent US11634458B2, “Peptides and compositions for use in cosmetics and medicine” (LIPOTRUE, S.L., priority 2018, dated 2023).

Tests used:
[1] = tested on: human muscle cells and motor neurons derived from hiPSC co-cultures; test: Contraction frequency in human muscle cell / hiPSC motor neuron co-cultures; assay type: cell-based
Description: The potential of said peptide Ac-SEQ ID NO: 8-NH2 to modulate the contraction frequency was evaluated in vitro using human muscle cells and motor neurons derived from hiPSC co-cultures, by means of live-imaging video of localized contractile muscle fibers recorded with an InCell 2200 automated microscope during 60 seconds, before and after treatment (after treatment, at each of the established timepoints).
Human muscle cells were cultivated at a density of 1×10^6 cells in T75 cm^2 flasks and then transferred to 96 well plates for differentiation. Motor neurons derived from hiPSC were transferred onto the 96 well plates containing the muscle cells in a differentiation medium. Co-cultures were maintained for 10 days in order to generate neurons junctions with muscle fibers. Spontaneous contractions were observed within 5 days.
Co-cultures were then treated with control medium (basal), 1 μM α-bungarotoxin, 0.5 mg/mL of acetyl hexapeptide-8 as a benchmark reference and 0.05 or 0.1 mg/mL of peptide Ac-SEQ ID NO: 8-NH2. Movies of co-cultures were recorded during 60 seconds before treatment and, after 30 minutes of incubation, movies were recorded again during 60 seconds. The culture plate was incubated again for 1 h 30 min with compounds (2 h of total incubation), and movies of co-cultures were recorded again during 60 seconds. The culture plate was incubated again for a total of 24 h with compounds and at the end of the incubation movies were recorded again during 60 seconds. Finally, compounds were washed out and a last recording after 24 h from said washed out of the compounds was done to assess an eventual recovery of muscle contractions (recovery).
Frequencies of contraction were calculated before and after each incubation. For each culture condition, 6 wells were analyzed.

[2] = tested on: SH-SY5Y cells; test: Exocytosis levels and delay (fluorescent exocytosis reporter); assay type: cell-based, human; details: 0.01 mg/mL, 1 hour, PMA + ionomycin, vs non-treated cells
Description: The potential of said peptide Ac-SEQ ID NO: 8-NH2 to modulate the exocytosis of vesicles containing neurotransmitters from a neuroblastoma cell line was evaluated in vitro using SH-SY5Y cells, by fluorescence imaging using a Zeiss axiovert 200 inverted epifluorescence microscope with a 20× objective and a Xenon lamp.
SH-SY5Y cells (Sigma, USA) were cultured in T25 flasks in supplemented medium (DMEM/F12, Gibco, USA). Above 90% confluence, cells were trypsinized with 1 ml of 0.5% (v/v) Trypsin-EDTA. Next, 5 mL of said supplemented medium was added and cell concentration determined. Cells were seeded onto polyLysine-coated 12 mm-treated coverslips in 24 well-plates at 15×10^4 cells/well in supplemented medium (Gibco, USA) and incubated at regular conditions (37° C., 5% CO2). After 24 h cell seeding, cells were transfected with exocytosis reporter using Lipofectamine™ 3000 (Invitrogen, USA) following manufacturer's instructions. Reporter construct contained fusion protein made up of intraluminal-specific proteins and a pH-sensitive fluorescent protein.
For exocytosis monitorization, after 48 h of protein expression, cells were incubated with 0.01 mg/mL of Ac-SEQ ID NO: 8-NH2 peptide or 1 mg/mL of the benchmark acetyl hexapeptide-8 for 1 h at 37° C. and 5% CO2. Non-treated cells were used as basal control. […] Fluorescence imaging was done for the last 10 min of the stimulation protocol. Fluorescence signal of exocytosis reporter was monitored employing 483-512 nm excitation-filter and 525-530 nm emission-filter. […]
Non-treated cells were assayed in N=4 independent experiments with n=16 coverslips (483 cells measured), acetyl hexapeptide-8-treated cells in N=3 independent experiments with n=10 coverslips (328 cells measured) and Ac-SEQ ID NO: 8-NH2-treated cells in N=3 independent experiments with n=8 coverslips (240 cells measured). Cells were selected to individually monitor fluorescence intensity and time-course. Fluorescence peak evoked by ionomycin addition was used to quantify exocytosis by calculating the Area under the curve (AUC) using GraphPad software. Two parameters were defined and analyzed: • Exocytosis levels: For individual cells, total peak area was obtained from AUC analysis and was normalized by the baseline that was defined as fluorescence intensity 3-cycles before lonomycin injection. • Exocytosis delay: For individual cells, response time (min) was obtained from AUC analysis as time frame between lonomycin injection (Y) and initiation of peak (firstX).
Fluorescence values were further normalized as percentage change to non-treated cells on each experiment as: (exocytosis level of treated cells/exocytosis levels non-treated cells)×100 and (response time of treated cells/response time of non-treated cells)×100. […]

Substance: Ac-His-Ala-Leu-Arg-Phe-Trp-NH2 [Ac-SEQ ID NO: 8-NH2]
- muscle contraction frequency with regard to the basal non-treated cells ([1]; 0.05 mg/mL, 24 h incubation): 23%
- muscle contraction frequency with regard to the basal non-treated cells ([1]; 0.05 mg/mL, after 30 min): 25%
- muscle contraction frequency with regard to the basal non-treated cells ([1]; 0.05 mg/mL, recovery 24 h after washout): 65%
- muscle contraction frequency with regard to the basal non-treated cells ([1]; 0.1 mg/mL, 24 h incubation): 10%
- muscle contraction frequency with regard to the basal non-treated cells ([1]; 0.1 mg/mL, after 30 min): 18%
- muscle contraction frequency with regard to the basal non-treated cells ([1]; 0.1 mg/mL, recovery 24 h after washout): 35%
- change of exocytosis levels [2]: −14%
- exocytosis response time delay [2]: 24%
